Results on five compounds are retold here after BindingDB's records for doi:10.1016/j.bmcl.2004.08.009 (Deltagen Research Laboratories, 2004).

Assay [1] can be described thus: Inhibition of MCP-1 induced chemotaxis in THP-1 cells.
Assay [2] addresses C-C chemokine receptor type 2 (Homo sapiens, UniProt P41597). Description: Inhibition of MCP-1 induced chemotaxis in THP-1 cells.

C-C chemokine receptor type 2, sequence (P41597 whole entry): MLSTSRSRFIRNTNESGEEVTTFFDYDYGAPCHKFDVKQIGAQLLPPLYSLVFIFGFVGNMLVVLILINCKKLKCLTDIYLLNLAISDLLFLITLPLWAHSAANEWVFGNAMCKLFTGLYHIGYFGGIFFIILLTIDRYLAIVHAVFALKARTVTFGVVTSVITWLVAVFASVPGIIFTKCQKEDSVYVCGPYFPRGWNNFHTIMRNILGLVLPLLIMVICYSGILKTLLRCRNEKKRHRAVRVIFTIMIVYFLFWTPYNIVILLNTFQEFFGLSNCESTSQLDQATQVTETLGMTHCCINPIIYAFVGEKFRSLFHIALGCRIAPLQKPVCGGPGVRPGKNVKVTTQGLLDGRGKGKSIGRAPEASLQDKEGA

The term EC50 denotes the concentration at which the effect is half-maximal. A low value points to a more potent agent. As for `O=C(CNC(=O)c1cccc(C(F)(F)F)c1)NC1CCCN(Cc2ccc(Cl)cc2)C1` (stereo not given) [N-{[1-(4-Chloro-benzyl)-piperidin-3-ylcarbamoyl]-methyl}-3-trifluoromethyl-benzamide], in assay [1], it took 610 nM to reach a half-maximal effect (EC50). `O=C(CNC(=O)c1cccc(C(F)(F)F)c1)N[C@H]1CCN(Cc2ccc(Cl)cc2)C1` came in with a concentration for a half-maximal effect (EC50) in assay [1] of 360 nM. Regarding `O=C(CNC(=O)c1cccc(C(F)(F)F)c1)N[C@@H]1CCN(Cc2ccc(Cl)cc2)C1` [(R)-N-(2-(1-(4-chlorobenzyl)pyrrolidin-3-ylamino)-2-oxoethyl)-3-(trifluoromethyl)benzamide], in assay [1], it took 20 nM to reach a half-maximal effect (EC50). `O=C(CNC(=O)c1cccc(C(F)(F)F)c1)NCC1CCN(Cc2ccc(Cl)cc2)CC1` [N-({[1-(4-Chloro-benzyl)-piperidin-4-ylmethyl]-carbamoyl}-methyl)-3-trifluoromethyl-benzamide]: in assay [1], the midpoint of the response, the EC50, lay at 40 nM. As for `O=C(CNC(=O)c1cccc(C(F)(F)F)c1)NC[C@H]1CCCN1Cc1ccc(Cl)cc1`, the EC50 in assay [2] was 810 nM.
